What was measured:
DBA/2 mice = experiment: Audiogenic seizure model; format: in vivo; conditions: Mus musculus, DBA/2 mice, oral, auditory stimulation 1 hour after administration, read-out: Seizure suppression
Method in brief: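 Male and female DBA/2 mice (3 weeks old, 8/group) dosed orally at 30 mg/kg in 5% gum arabic; 1 h later exposed to 12.6 kHz, 100-110 dB tone for 1 min or until tonic seizure. Maximum seizure score (0–4) recorded; suppression rate graded A (≥90%), B (70–<90%), C (50–<70%).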

ICR mice = experiment: Rotarod test (motor coordination); format: in vivo, mouse; conditions: oral, rotarod 1 hour after administration
Procedure: This test is performed to evaluate the effect of the compound on the motor coordination. In this test example, the example compounds shown in Table 4 below were used as test compounds. Male ICR mice (Japan SLC, Inc., 5-6 weeks, 8 per group) were trained to remain on a fixed speed (15 rpm) rotating rod of rotarod apparatus (Muromachi Kikai Co., Ltd.) for 2 minutes. […] After 1 hour of oral administration, the mice were again placed on the rod accelerated from 4 rpm to 40 rpm over 5 minutes and the latency to fall off the rod was recorded for 200 seconds. The falling latency of the compound administration group was calculated as a relative value relative to the average value of the falling latency in the solvent administration group. Here, a coordination disorder of 25% or less was expressed as “A”, and a coordination disorder of more than 25% and 50% or less was expressed as “B”.

Row | Compound | inhibition in vivo at 5 mg/kg (DBA/2 mice) | Motor dysfunction (ICR mice; dose 5 mg/kg) | inhibition in vivo at 30 mg/kg (DBA/2 mice) | Motor dysfunction (ICR mice; dose 30 mg/kg)
1 | c1ccc(Oc2ncc(-c3ccc4nccn4c3)cn2)cc1 [Example 119, 6-(2-Phenoxypyrimidin-5-Yl) Imidazo[1,2-a]Pyridine] | > 90% | A (a coordination disorder of 25% or less) | – | –
2 | Fc1ccc(Oc2ncc(-c3ccc4nccn4c3)cn2)cc1 [Example 120] | > 90% | B (a coordination disorder of more than 25% and 50% or less) | – | –
3 | Fc1ccccc1Oc1ncc(-c2ccc3nccn3c2)cn1 [Example 121] | > 90% | A (a coordination disorder of 25% or less) | – | –
4 | Fc1cccc(Oc2ncc(-c3ccc4nccn4c3)cn2)c1 [Example 122] | > 90% | A (a coordination disorder of 25% or less) | – | –
5 | c1ccc(Oc2ncc(-c3ccc4nccn4n3)cn2)cc1 [Example 123, 6-(2-Phenoxypyrimidin-5-Yl) Imidazo[1,2-b]Pyridazine] | > 90% | A (a coordination disorder of 25% or less) | – | –
6 | c1ccc(Oc2ncc(-c3ccn4ccnc4c3)cn2)cc1 [Example 127] | > 90% | B (a coordination disorder of more than 25% and 50% or less) | – | –
7 | c1ccc(Oc2ncc(-c3ccc4nncn4c3)cn2)cc1 [Example 129] | > 90% | A (a coordination disorder of 25% or less) | – | –
8 | c1ccc(Oc2ncc(-c3ccn4nccc4n3)cn2)cc1 [Example 134] | > 90% | B (a coordination disorder of more than 25% and 50% or less) | – | –
9 | c1ccc(Oc2ncc(-c3cnc4cc[nH]c4c3)cn2)cc1 [Example 137, 6-(2-Phenoxypyrimidin-5-Yl)-1H-Pyrrolo[3,2-b]Pyridine] | – | – | > 90% | A (a coordination disorder of 25% or less)
10 | c1ccc(Oc2ncc(-c3ccc4ncnn4c3)cn2)cc1 [Example 141] | > 90% | B (a coordination disorder of more than 25% and 50% or less) | – | –
11 | c1ccc(Oc2ncc(-c3ccc4ncccc4n3)cn2)cc1 [Example 143] | – | – | > 90% | A (a coordination disorder of 25% or less)
12 | c1ccc(Oc2ncc(-c3cn4ccnc4cn3)cn2)cc1 [Example 148] | – | – | > 90% | A (a coordination disorder of 25% or less)
13 | c1ccc(Oc2ncc(-c3ccc4ccnn4c3)cn2)cc1 [Example 151] | > 90% | A (a coordination disorder of 25% or less) | – | –
14 | c1ccc(Oc2ncc(-c3ccc4cncn4c3)cn2)cc1 [Example 155] | > 90% | A (a coordination disorder of 25% or less) | – | –
15 | Cc1cccc(Oc2ncc(-c3ccc4nccn4c3)cn2)c1 [Example 161] | > 90% | A (a coordination disorder of 25% or less) | – | –
16 | COc1cccc(Oc2ncc(-c3ccc4nccn4c3)cn2)c1 [Example 162] | > 90% | A (a coordination disorder of 25% or less) | – | –
17 | Clc1cccc(Oc2ncc(-c3ccc4nccn4c3)cn2)c1 [Example 163, 6-(2-(3-Chlorophenoxy)Pyrimidin-5-Yl) Imidazo[1,2-a]Pyridine] | > 90% | A (a coordination disorder of 25% or less) | – | –
18 | FC(F)(F)c1cccc(Oc2ncc(-c3ccc4nccn4c3)cn2)c1 [Example 170] | > 90% | A (a coordination disorder of 25% or less) | – | –
19 | FC(F)(F)Oc1cccc(Oc2ncc(-c3ccc4nccn4c3)cn2)c1 [Example 171] | > 90% | A (a coordination disorder of 25% or less) | – | –
20 | O=C1Cc2nc(-c3cnc(Oc4ccccc4)nc3)ccc2N1 [Example 172, 5-(2-Phenoxypyrimidin-5-Yl)-1H-Pyrrolo[3,2-b]Pyridin-2 (3H)-One] | > 90% | A (a coordination disorder of 25% or less) | – | –
21 | c1ccc(Oc2ncc(-c3ccc4cnnn4c3)cn2)cc1 [Example 173, 6-(2-Phenoxypyrimidin-5-Yl)-[1,2,3]Triazolo[1,5-a]Pyridine] | > 90% | A (a coordination disorder of 25% or less) | – | –
22 | Cc1cn2cc(-c3cnc(Oc4ccccc4)nc3)ccc2n1 [Example 177] | 70 to 90% | A (a coordination disorder of 25% or less) | – | –
23 | Cc1cn2ccc(-c3cnc(Oc4ccccc4)nc3)cc2n1 [Example 181] | 70 to 90% | A (a coordination disorder of 25% or less) | – | –

— patent US12391674B2, “Heterocyclic compounds for the treatment of epilepsy” (OTSUKA PHARMACEUTICAL CO., LTD., priority 2018, dated 2025)
